Measured values as given in the supplement of paper PMC10307832.

Columns and labels:
Test in all cases: relative viability (nuclei count vs DMSO), 5 days (fraction); higher = more cells survive
[1] = compound: C=CCNC1=C2C[C@@H](C)C[C@H](OC)[C@H](O)[C@@H](C)/C=C(\C)[C@H](OC(N)=O)[C@@H](OC)/C=C\C=C(/C)C(=O)NC(=CC1=O)C2=O [17-AAG] + Nc1nc2[nH]cc(CCc3ccc(C(=O)N[C@@H](CCC(=O)O)C(=O)O)cc3)c2c(=O)[nH]1 [Pemetrexed] (partner 0.2 µM)
Summary of the method: (§1)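 Lung cancer cell lines were pin-tool dosed in 1536-well plates on the day after seeding, with either a lone drug or a fixed anchor-drug dose plus five library-drug doses (not always all listed) in √10 steps. Nuclei were counted on 4× images after 5 days. Relative viability is the ratio of treated-well to vehicle-well nuclei counts, with each value a median of duplicate plates.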

[2] = compound: C=CCNC1=C2C[C@@H](C)C[C@H](OC)[C@H](O)[C@@H](C)/C=C(\C)[C@H](OC(N)=O)[C@@H](OC)/C=C\C=C(/C)C(=O)NC(=CC1=O)C2=O [17-AAG] + O=C(c1cc(Cc2n[nH]c(=O)c3ccccc23)ccc1F)N1CCN(C(=O)C2CC2)CC1 [Olaparib] (partner 8 µM)
Summary of the method: as §1

[3] = compound: C=CCNC1=C2C[C@@H](C)C[C@H](OC)[C@H](O)[C@@H](C)/C=C(\C)[C@H](OC(N)=O)[C@@H](OC)/C=C\C=C(/C)C(=O)NC(=CC1=O)C2=O [17-AAG] + O=C(CCCCCCC(=O)Nc1ccccc1)NO [Vorinostat] (partner 1 µM)
Summary of the method: as §1

[4] = compound: C=CCNC1=C2C[C@@H](C)C[C@H](OC)[C@H](O)[C@@H](C)/C=C(\C)[C@H](OC(N)=O)[C@@H](OC)/C=C\C=C(/C)C(=O)NC(=CC1=O)C2=O [17-AAG] + C[C@]1(O)C[C@@H](c2nc(-c3ccc4ccc(-c5ccccc5)nc4c3)c3c(N)nccn32)C1 [Linsitinib] (partner 1 µM)
Summary of the method: as §1

Row | Cell Line | relative viability ([1]; first compound 0.00128 µM) | relative viability ([1]; first compound 0.004048 µM) | relative viability ([1]; first compound 0.0128 µM) | relative viability ([1]; first compound 0.04048 µM) | relative viability ([1]; first compound 0.128 µM) | relative viability ([2]; first compound 0.00128 µM) | relative viability ([2]; first compound 0.004048 µM) | relative viability ([2]; first compound 0.0128 µM) | relative viability ([2]; first compound 0.04048 µM) | relative viability ([2]; first compound 0.128 µM) | relative viability ([3]; first compound 0.00128 µM) | relative viability ([3]; first compound 0.004048 µM) | relative viability ([3]; first compound 0.0128 µM) | relative viability ([3]; first compound 0.04048 µM) | relative viability ([3]; first compound 0.128 µM) | relative viability ([4]; first compound 0.00128 µM) | relative viability ([4]; first compound 0.004048 µM) | relative viability ([4]; first compound 0.0128 µM) | relative viability ([4]; first compound 0.04048 µM) | relative viability ([4]; first compound 0.128 µM)
1 | NCI-H522 | 0.974 | 1.01 | 0.673 | 0.764 | 0.372 | 0.517 | 0.878 | 0.505 | 0.485 | 0.399 | 0.982 | 0.944 | 0.518 | 0.423 | 0.382 |  |  |  |  | 
2 | NCI-H727 |  |  |  |  |  | 0.619 | 0.737 | 0.696 | 0.707 | 0.386 | 1.36 | 1.05 | 1.23 | 1.32 | 0.511 | 0.312 | 0.252 | 0.176 | 0.179 | 0.22
3 | NCI-H1299 |  |  |  |  |  | 1.01 | 0.922 | 0.965 | 0.605 | 0.282 |  |  |  |  |  | 0.999 | 0.922 | 0.919 | 0.894 | 0.714
4 | NCI-H1563 | 0.773 | 0.898 | 0.468 | 0.452 | 0.414 |  |  |  |  |  |  |  |  |  |  | 1.17 | 0.952 | 0.668 | 0.623 | 0.622
5 | NCI-H1648 |  | 0.904 | 0.649 | 0.29 | 0.288 |  | 0.716 | 0.921 | 0.9 | 0.317 |  | 0.433 | 0.362 | 0.538 | 0.243 |  |  |  |  | 
6 | NCI-H1650 | 0.336 | 0.383 | 0.351 | 0.168 | 0.15 | 0.721 | 0.636 | 0.147 | 0.156 | 0.113 | 0.371 | 0.376 | 0.232 | 0.152 | 0.138 |  |  |  |  | 
7 | NCI-H1703 |  |  |  |  |  | 0.512 | 0.183 | 0.144 | 0.164 | 0.105 |  |  |  |  |  | 0.3 | 0.687 | 0.115 | 0.148 | 0.0982
8 | NCI-H1792 | 0.782 | 0.378 | 0.113 | 0.0425 | 0.0604 | 0.456 | 0.284 | 0.221 | 0.0633 | 0.0524 |  |  |  |  |  | 0.481 | 0.619 | 0.449 | 0.391 | 0.372
9 | NCI-H2170 | 0.256 | 0.27 | 0.262 | 0.152 | 0.139 | 0.663 | 0.565 | 0.466 | 0.129 | 0.12 | 0.837 | 0.827 | 0.336 | 0.169 | 0.143 |  |  |  |  | 
10 | NCI-H2342 | 0.803 | 0.854 | 0.782 | 0.589 | 0.39 | 0.506 | 0.4 | 0.487 | 0.437 | 0.374 | 0.651 | 0.86 | 0.715 | 0.668 | 0.409 |  |  |  |  | 
11 | SW 900 | 0.455 | 0.437 | 0.242 | 0.139 | 0.168 | 0.892 | 0.491 | 0.244 | 0.192 | 0.163 | 0.51 | 0.547 | 0.23 | 0.138 | 0.131 |  |  |  |  | 
